Earlier results in patent US20080103154A1, “3, 4-dihydro-2(IH)-quinolinone and 2(1H)-quinolinone derivatives” (Concert Pharmaceuticals Inc., priority 2006, published 2008).

Assays:
5-HT2C = biological target: T1, 5-HT2C (Homo sapiens, UniProt P28335); settings: transfected cell lines expressing rat and human receptors
T1 sequence (P28335 33-458): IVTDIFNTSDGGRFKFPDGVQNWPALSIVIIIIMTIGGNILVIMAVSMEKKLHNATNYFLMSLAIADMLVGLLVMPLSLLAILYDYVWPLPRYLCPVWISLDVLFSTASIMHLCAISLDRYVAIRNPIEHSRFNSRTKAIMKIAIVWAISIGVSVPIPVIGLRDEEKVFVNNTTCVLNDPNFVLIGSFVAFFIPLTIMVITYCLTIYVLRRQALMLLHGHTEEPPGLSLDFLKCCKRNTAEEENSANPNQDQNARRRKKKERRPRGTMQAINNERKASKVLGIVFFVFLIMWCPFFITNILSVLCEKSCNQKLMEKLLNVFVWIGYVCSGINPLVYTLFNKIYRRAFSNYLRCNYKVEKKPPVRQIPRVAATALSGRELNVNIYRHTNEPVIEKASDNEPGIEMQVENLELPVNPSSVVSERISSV

[1] = not given; remark: listed apart in the source
α1 = settings: transfected cell lines expressing rat and human receptors
H1 receptors = H1 receptors (Homo sapiens, UniProt P35367); settings: transfected cell lines expressing rat and human receptors
5-HT1A = biological target: T2, 5-HT1A (Homo sapiens, UniProt P08908); settings: transfected cell lines expressing rat and human receptors
T2 sequence (P08908 1-422): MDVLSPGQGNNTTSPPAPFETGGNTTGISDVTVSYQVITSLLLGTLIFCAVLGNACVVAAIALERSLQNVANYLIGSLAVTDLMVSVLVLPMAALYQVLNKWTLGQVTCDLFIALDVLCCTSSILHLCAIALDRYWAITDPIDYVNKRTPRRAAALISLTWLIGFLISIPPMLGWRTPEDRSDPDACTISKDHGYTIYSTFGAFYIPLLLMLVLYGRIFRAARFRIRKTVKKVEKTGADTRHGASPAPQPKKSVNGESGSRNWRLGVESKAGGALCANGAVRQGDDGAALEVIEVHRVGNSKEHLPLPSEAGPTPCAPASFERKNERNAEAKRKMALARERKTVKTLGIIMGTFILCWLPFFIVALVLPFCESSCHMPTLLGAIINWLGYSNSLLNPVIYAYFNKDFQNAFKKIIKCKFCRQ

5-HT2A = 5-HT2A (Homo sapiens, UniProt P28223); settings: transfected cell lines expressing rat and human receptors
Sequence of 5-HT2A (P28223 whole entry): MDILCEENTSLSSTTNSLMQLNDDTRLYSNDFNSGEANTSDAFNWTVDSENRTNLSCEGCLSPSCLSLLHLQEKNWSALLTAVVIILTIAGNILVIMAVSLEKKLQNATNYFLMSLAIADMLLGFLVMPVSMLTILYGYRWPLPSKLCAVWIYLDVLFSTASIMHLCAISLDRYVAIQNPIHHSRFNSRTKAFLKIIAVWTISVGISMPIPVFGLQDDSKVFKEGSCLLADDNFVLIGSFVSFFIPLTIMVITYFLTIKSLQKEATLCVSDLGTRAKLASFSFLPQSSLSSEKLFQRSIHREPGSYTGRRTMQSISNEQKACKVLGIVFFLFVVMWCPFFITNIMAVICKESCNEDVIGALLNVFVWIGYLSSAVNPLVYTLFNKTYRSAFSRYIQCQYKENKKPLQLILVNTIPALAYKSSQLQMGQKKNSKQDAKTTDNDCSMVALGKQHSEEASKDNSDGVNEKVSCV

Sequence of H1 receptors (P35367 whole entry): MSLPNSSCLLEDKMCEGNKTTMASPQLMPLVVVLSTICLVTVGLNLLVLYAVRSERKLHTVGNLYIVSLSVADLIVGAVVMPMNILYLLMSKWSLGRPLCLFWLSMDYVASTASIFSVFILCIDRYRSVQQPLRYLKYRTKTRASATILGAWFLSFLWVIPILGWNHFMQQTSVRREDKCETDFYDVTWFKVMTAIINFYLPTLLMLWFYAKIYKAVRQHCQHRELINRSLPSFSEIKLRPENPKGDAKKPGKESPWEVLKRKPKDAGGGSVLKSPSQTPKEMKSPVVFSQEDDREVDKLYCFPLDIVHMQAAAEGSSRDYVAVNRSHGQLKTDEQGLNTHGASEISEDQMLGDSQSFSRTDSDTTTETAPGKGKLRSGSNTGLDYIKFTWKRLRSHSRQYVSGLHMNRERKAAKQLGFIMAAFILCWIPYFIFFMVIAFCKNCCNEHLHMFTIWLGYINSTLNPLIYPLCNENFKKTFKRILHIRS

| Compound | share of activity accounted for by metabolite (humans) [%] | potency relative to aripiprazole (metabolite of aripiprazole) | affinity to 5-HT2C (5-HT2C) | metabolism ([1]; humans) | absorption ([1]; oral administration in humans) | absolute oral bioavailability ([1]; oral formulation, humans) [%] | affinity to α1 (α1) | affinity to H1 receptors (H1 receptors) | affinity binding to 5-HT1A (5-HT1A) | affinity binding to 5-HT2A (5-HT2A) |
| --- | --- | --- | --- | --- | --- | --- | --- | --- | --- | --- |
| O=c1ccc2ccc(OCCCCN3CCN(c4cccc(Cl)c4Cl)CC3)cc2[nH]1 [dehydroaripiprazole] | 20 | equipotent with aripiprazole | – | – | – | – | – | – | – | – |
| O=C1CCc2ccc(OCCCCN3CCN(c4cccc(Cl)c4Cl)CC3)cc2N1 [Aripiprazole] | – | – | moderate affinity | extensively metabolized | well absorbed | 87 | moderate affinity | moderate affinity | high affinity | high affinity |
